Patent publication US20240200005A1, “METHOD FOR DEVELOPING AND/OR REPROGRAMMING PLANT CELLULAR OBJECTS” (SCREENSYS GMBH, priority 2021, published 2024)

Tested on: microspores of Brassica napus
Experiment: Dose-response of TSA trigger on growth/reprogramming of microspores in microfluidic compartments (image-based size analysis)
Assay type: cell-based
Conditions: for percentage of total microspores larger than 45 μm (multicellular stage): after 3 days
Excerpt: For the cultivation of the microspores, the desired compartment sequences were generated by application of the system as shown in FIG. 1. The core of the system 2 was a five-channel precision syringe pump 11 (NEMESYS Cetoni GmbH, Germany) which can feed up to five fluids 6a-6e carried in glass syringes 20 (SETonic GmbH, Germany). One channel was used for the delivery of perfluoro-methyldecalin (PP9) as carrier fluid 6/6a, which is immiscible with the other fluids and thus separates the individual aqueous compartments 4 from one another inside the generated compartment 4 sequence. Another channel was used for 1×NLN13 (recipe below) medium 6b to dilute the medium with the microspores 14 and adjust the total volume of the compartments 4, and thus the concentration of the plant cellular objects 14 and the other substances, during formation. Two different trigger solutions 6c, 6d were used in channels three and four. Channel five was used for dosing the cell suspension, i.e. the medium with the plant cellular objects 14, itself. A cell container vial 12 was employed to feed the microspores 14 into the compartment generator 10. For this, a small conical glass vial 12 with a capacity of about 2 ml was used (See FIG. 1). The vial 12 was filled with the microspore suspension, i.e. medium with plant cellular objects 14, and closed airtight and free of air bubbles. The initial microspore density in the vial 12 was about 700.000 microspores/ml.
By syringe pump-controlled addition of medium 6e into the container 12 the suspended microspores 14 were fed through the container outlet conduit 16, a 0.2 mm ID FEP tube, into the compartment generator 10. ID stands for inner diameter. Instead of medium 6e it is also contemplated to add carrier fluid 6 to the container 12 with the suspended microspores. The individual syringes 20 were connected with the compartment generator 10 via respective conduits 17. Compartments 4 of about 120 nL volume each were formed and forwarded in a 0.5 mm ID PTFE tube as the microfluidic conduit 8 for incubation. A detailed description of the used compartment generator 10 can be found in “Cao J, Richter F, Kastl M, Erdmann J, Burgold C, Dittrich D, Schneider S, Köhler J M, Groß GA (2020) Droplet-Based Screening for the Investigation of Microbial Nonlinear Dose-Response Characteristics System, Background and Examples. Micromachines. 10.3390/mi1106057”, which is incorporated herein in its entirety by reference. For sufficient diffusive aeration during long-time incubation times, PTFE tubes with low wall thickness were used (inner diameter: 0.5 mm, outer diameter: 1.0 mm). Typical flow rate conditions of about 30 μl/min for the aqueous phases, i.e. the sample fluid, i.e. the medium 6b, the medium with the plant cellular objects, and the trigger solutions 6c, 6d, and about 100 μl/min for the embedding phase, i.e. the carrier fluid 6a, were used. […] However, other tube materials and dimensions may be used.
For a dose-response experiment the Trichostatin A (TSA) was chosen as a trigger. The stimulating effect of TSA on the germination of the microspores 14 was investigated in a concentration range from 0.01 μM up to 5 μM. Therefore, TSA stock solutions of 0.2 μM TSA 6c and 10 μM TSA 6d were used in the syringes 20 for triggers 1 and 2. The application of an appropriate flow rate program yielded the compartment 4 sequence with the desired concentrations of TSA in the compartments 4, as shown in FIG. 2. The resulting compartments 4 were composed of 50% volume microspore suspension, 50%-0% dilution medium 6b and 0-50% of the trigger solution 6c, 6d. Depending on the intended concentration of TSA in the generated compartments 4, either 0.2 μM TSA solution 6c or 10 μM TSA solution 6d was added to the generated compartments 4. The flow rate for the carrier medium 6e, here PP9, was kept constant at 50 μl/min. […]

**Q.** `CC(/C=C/C(=O)NO)=C\[C@@H](C)C(=O)c1ccc(N(C)C)cc1` [TSA, Trichostatin A] was tested. Which “percentage of microspores larger than 35 μm” value (0.01 μM TSA, after 3 days incubation at 32° C.) did it give?
**A.** Its value is “about 3%”.

**Q.** What about the “change of percentage of microspores larger than 35 μm” value (0.01 μM TSA, after 6 days versus 3 days) of the same compound?
**A.** Its value is “increased only marginally”.

**Q.** What about the “percentage of total microspores larger than 45 μm (multicellular stage)” value (“percentage … (multicellular stage)” below) (0.05 μM TSA) of the same compound?
**A.** Its value is “about 1%”.

**Q.** And the “percentage of total microspores with a diameter of at least 35 μm” value (0.05 μM TSA, after 6 days)?
**A.** The value was “about 8%”.

**Q.** What about the “percentage of very large microspores (>45 μm)” value (“percentage … (>45 μm)” below) (0.05 μM TSA, after 6 days) of the same compound?
**A.** The value was “about 2%”.

**Q.** What about the “percentage … (multicellular stage)” value (0.1 μM TSA) of the same compound?
**A.** Its value is “about 1%”.

**Q.** What about the “percentage of microspores larger than 35 μm” value (0.1 μM TSA, after 3 days incubation at 32° C.) of the same compound?
**A.** Its value is roughly 9%.

**Q.** What about the “percentage of microspores larger than 35 μm (total column)” value (0.1 μM TSA, after 6 days) of the same compound?
**A.** Its value is 11.4%.

**Q.** What about the “proportion of microspores larger than 45 μm” value (0.1 μM TSA, after 6 days) of the same compound?
**A.** Its value is 4.4%.

**Q.** And the “percentage … (multicellular stage)” value (0.35 μM TSA)?
**A.** Its value is “about 1%”.

**Q.** What about the “percentage of microspores larger than 35 μm” value (0.35 μM TSA, after 3 days incubation at 32° C.) of the same compound?
**A.** The value was 8%.

**Q.** What about the “percentage of microspores larger than 35 μm” value (0.35 μM TSA, after 6 days) of the same compound?
**A.** The value was 11.7%.

**Q.** What about the “percentage … (>45 μm)” value (0.35 μM TSA, after 6 days) of the same compound?
**A.** The value was 3.8%.

**Q.** And the “percentage of microspores larger than 35 μm” value (0.5 μM TSA, after 3 days incubation at 32° C.)?
**A.** The value was “about 4.4%”.

**Q.** What about the “percentage of total microspores with a diameter of at least 35 μm” value (0.5 μM TSA, after 6 days) of the same compound?
**A.** Its value is “about 8%”.

**Q.** What about the “percentage … (>45 μm)” value (0.5 μM TSA, after 6 days) of the same compound?
**A.** The value was “about 2%”.

**Q.** What about the “percentage of microspores larger than 35 μm” value (1 μM TSA, after 3 days incubation at 32° C.) of the same compound?
**A.** Its value is roughly 4%.

**Q.** And the “green portion of column (microspores larger than 45 μm)” value (1 μM TSA, after 6 days)?
**A.** Its value is “approximately 1.7%”.

**Q.** What about the “percentage of microspores larger than 35 μm (total column height)” value (1 μM TSA, after 6 days) of the same compound?
**A.** Its value is 6.4%.

**Q.** What about the “percentage of microspores larger than 35 μm” value (2 μM TSA, after 3 days incubation at 32° C.) of the same compound?
**A.** The value was roughly 0%.

**Q.** What about the “percentage of microspores larger than 35 μm” value (2 μM TSA, after 6 days) of the same compound?
**A.** Its value is “about 1.3%”.

**Q.** What about the “percentage of microspores larger than 35 μm” value (5 μM TSA, after 3 days incubation at 32° C.) of the same compound?
**A.** The value was 0%.

**Q.** What about the growth of microspores (5 μM TSA, after 6 days) of the same compound?
**A.** Its growth of microspores is “without any recognizable growth”.

**Q.** What about the “percentage of microspores larger than 35 μm” value (0.05 M TSA (so in the source), after 3 days incubation at 32° C.) of the same compound?
**A.** Its value is “approximately 7.6%”.

**Q.** What about the lethal dose (microspores, no recognizable growth after 6 days) of the same compound?
**A.** Its lethal dose is 5 µM.
